Data as given in ChEMBL document CHEMBL3885861, “Open TG-GATES”.

Organism: Rattus norvegicus
Assay: Open TG-GATES - Regimen: Daily Repeat
Type: toxicity, organism-based, Sprague-Dawley
Parameters: regimen Daily Repeat, gender Male, age 6 weeks
Conditions: in vivo, po, 0 mg/kg, route gavage, dose level Control; for APTT / Bas / Eos / Fbg / Hb / Ht / Lym / MCH / MCHC / MCV / Mono / Neu / PT / Plat / RBC / Ret / WBC: tissue Blood; for KIDNEY_L / KIDNEY_R / KIDNEY_TOTAL: tissue Kidney; for LIVER: tissue Liver; for A/G / ALP / ALT / AST / BUN / CRE / Ca / Cl / DBIL / GLC / IP / K / LDH / Na / PL / RALB / TBIL / TC / TG / TP / gamma-GTP: tissue Plasma

CCOC(=O)[C@H](CCc1ccccc1)N[C@@H](C)C(=O)N1CCC[C@H]1C(=O)O
TERMINAL_BW (72 h, time 3 day): 253.2 g | APTT (72 h, time 3 day): 16 s | Bas (72 h, time 3 day): 0% | Eos (72 h, time 3 day): 1% | Fbg (72 h, time 3 day): 242 mg/dL | Hb (72 h, time 3 day): 13.2 g/dL | Ht (72 h, time 3 day): 40.1% | Lym (72 h, time 3 day): 73.6% | MCH (72 h, time 3 day): 21 pg | MCHC (72 h, time 3 day): 32.9% | MCV (72 h, time 3 day): 63.9 fL | Mono (72 h, time 3 day): 7.8% | Neu (72 h, time 3 day): 17.4% | PT (72 h, time 3 day): 11.8 s | Plat (72 h, time 3 day): 123.1 x10_4/uL | RBC (72 h, time 3 day): 627.6 x10_4/ul | Ret (72 h, time 3 day): 6.6% | WBC (72 h, time 3 day): 111.6 x10_2/uL | KIDNEY_L (72 h, time 3 day): 1.1 g | KIDNEY_R (72 h, time 3 day): 1.1 g | KIDNEY_TOTAL (72 h, time 3 day): 2.2 g | LIVER (72 h, time 3 day): 12.4 g | A/G (72 h, time 3 day): 1.8 | ALP (72 h, time 3 day): 993.8 IU/L | ALT (72 h, time 3 day): 38.6 IU/L | AST (72 h, time 3 day): 63.4 IU/L | BUN (72 h, time 3 day): 19 mg/dL | CRE (72 h, time 3 day): 0.5 mg/dL | Ca (72 h, time 3 day): 11 mg/dL | Cl (72 h, time 3 day): 105 meq/L | DBIL (72 h, time 3 day): 0.022 mg/dL | GLC (72 h, time 3 day): 209.8 mg/dL | IP (72 h, time 3 day): 9 mg/dL | K (72 h, time 3 day): 4.7 meq/L | LDH (72 h, time 3 day): 82.2 IU/L | Na (72 h, time 3 day): 141.4 meq/L | PL (72 h, time 3 day): 149.6 mg/dL | RALB (72 h, time 3 day): 3.8 g/dL | TBIL (72 h, time 3 day): 0.4 mg/dL | TC (72 h, time 3 day): 81 mg/dL | TG (72 h, time 3 day): 114.6 mg/dL | TP (72 h, time 3 day): 5.9 g/dL | gamma-GTP (72 h, time 3 day): 1.2 IU/L | TERMINAL_BW ([…], time 7 day): 279.2 g | TERMINAL_BW ([…], time 14 day): 338.3 g | TERMINAL_BW ([…], time 28 day): 401.8 g | APTT ([…], time 7 day): 16.4 s | Bas ([…], time 7 day): 0% | Eos ([…], time 7 day): 1.2% | Fbg ([…], time 7 day): 227.8 mg/dL | Hb ([…], time 7 day): 13.9 g/dL | Ht ([…], time 7 day): 41.9% | Lym ([…], time 7 day): 78.8% | MCH ([…], time 7 day): 21.4 pg | MCHC ([…], time 7 day): 33.3% | MCV ([…], time 7 day): 64.6 fL | Mono ([…], time 7 day): 6% | Neu ([…], time 7 day): 14% | PT ([…], time 7 day): 11.6 s | Plat ([…], time 7 day): 121.8 x10_4/uL | RBC ([…], time 7 day): 649.6 x10_4/ul | Ret ([…], time 7 day): 6.5% | WBC ([…], time 7 day): 122 x10_2/uL | APTT ([…], time 14 day): 16.5 s | Bas ([…], time 14 day): 0% | Eos ([…], time 14 day): 1% | Fbg ([…], time 14 day): 232.8 mg/dL | Hb ([…], time 14 day): 13.9 g/dL | Ht ([…], time 14 day): 41.7% | Lym ([…], time 14 day): 79.2% | MCH ([…], time 14 day): 20.6 pg | MCHC ([…], time 14 day): 33.3% | MCV ([…], time 14 day): 61.8 fL | Mono ([…], time 14 day): 5.8% | Neu ([…], time 14 day): 13.4% | PT ([…], time 14 day): 11.4 s | Plat ([…], time 14 day): 115 x10_4/uL | RBC ([…], time 14 day): 675.8 x10_4/ul | Ret ([…], time 14 day): 4.1% | WBC ([…], time 14 day): 143.8 x10_2/uL | APTT ([…], time 28 day): 17.7 s | Bas ([…], time 28 day): 0% | Eos ([…], time 28 day): 1.2% | Fbg ([…], time 28 day): 249 mg/dL | Hb ([…], time 28 day): 15.3 g/dL | Ht ([…], time 28 day): 46.4% | Lym ([…], time 28 day): 80% | MCH ([…], time 28 day): 19.3 pg | MCHC ([…], time 28 day): 33% | MCV ([…], time 28 day): 58.3 fL | Mono ([…], time 28 day): 6% | Neu ([…], time 28 day): 12.6% | PT ([…], time 28 day): 11.6 s | Plat ([…], time 28 day): 107.8 x10_4/uL | RBC ([…], time 28 day): 797.4 x10_4/ul | Ret ([…], time 28 day): 3.1% | WBC ([…], time 28 day): 125.5 x10_2/uL | KIDNEY_L ([…], time 7 day): 1.2 g | KIDNEY_R ([…], time 7 day): 1.2 g | KIDNEY_TOTAL ([…], time 7 day): 2.4 g | KIDNEY_L ([…], time 14 day): 1.3 g | KIDNEY_R ([…], time 14 day): 1.3 g | KIDNEY_TOTAL ([…], time 14 day): 2.6 g | KIDNEY_L ([…], time 28 day): 1.4 g | KIDNEY_R ([…], time 28 day): 1.4 g | KIDNEY_TOTAL ([…], time 28 day): 2.8 g | LIVER ([…], time 7 day): 14 g | LIVER ([…], time 14 day): 15.8 g | LIVER ([…], time 28 day): 16.1 g | A/G ([…], time 7 day): 2.1 | ALP ([…], time 7 day): 778.4 IU/L | ALT ([…], time 7 day): 37.8 IU/L | AST ([…], time 7 day): 62 IU/L | BUN ([…], time 7 day): 18.2 mg/dL | CRE ([…], time 7 day): 0.5 mg/dL | Ca ([…], time 7 day): 10.7 mg/dL | Cl ([…], time 7 day): 106 meq/L | DBIL ([…], time 7 day): 0.002 mg/dL | GLC ([…], time 7 day): 207 mg/dL | IP ([…], time 7 day): 8.6 mg/dL | K ([…], time 7 day): 5 meq/L | LDH ([…], time 7 day): 89.2 IU/L | Na ([…], time 7 day): 140.2 meq/L | PL ([…], time 7 day): 157.4 mg/dL | RALB ([…], time 7 day): 4 g/dL | TBIL ([…], time 7 day): 0.4 mg/dL | TC ([…], time 7 day): 78.2 mg/dL | TG ([…], time 7 day): 130.2 mg/dL | TP ([…], time 7 day): 5.9 g/dL | gamma-GTP ([…], time 7 day): 1.6 IU/L | A/G ([…], time 14 day): 1.6 | ALP ([…], time 14 day): 684 IU/L | ALT ([…], time 14 day): 31 IU/L | AST ([…], time 14 day): 58.2 IU/L | BUN ([…], time 14 day): 19.6 mg/dL | CRE ([…], time 14 day): 0.6 mg/dL | Ca ([…], time 14 day): 10.9 mg/dL | Cl ([…], time 14 day): 106.4 meq/L | DBIL ([…], time 14 day): 0 mg/dL | GLC ([…], time 14 day): 209.6 mg/dL | IP ([…], time 14 day): 8 mg/dL | K ([…], time 14 day): 4.4 meq/L | LDH ([…], time 14 day): 105.2 IU/L | Na ([…], time 14 day): 140 meq/L | PL ([…], time 14 day): 162.2 mg/dL | RALB ([…], time 14 day): 3.9 g/dL | TBIL ([…], time 14 day): 0.3 mg/dL | TC ([…], time 14 day): 77 mg/dL | TG ([…], time 14 day): 172 mg/dL | TP ([…], time 14 day): 6.2 g/dL | gamma-GTP ([…], time 14 day): 1.4 IU/L | A/G ([…], time 28 day): 1.9 | ALP ([…], time 28 day): 643.2 IU/L | ALT ([…], time 28 day): 29.2 IU/L | AST ([…], time 28 day): 54.2 IU/L | BUN ([…], time 28 day): 19.2 mg/dL | CRE ([…], time 28 day): 0.7 mg/dL | Ca ([…], time 28 day): 10.7 mg/dL | Cl ([…], time 28 day): 107.2 meq/L | DBIL ([…], time 28 day): 0.036 mg/dL | GLC ([…], time 28 day): 202.6 mg/dL | IP ([…], time 28 day): 7 mg/dL | K ([…], time 28 day): 4.5 meq/L | LDH ([…], time 28 day): 61 IU/L | Na ([…], time 28 day): 140.2 meq/L | PL ([…], time 28 day): 145 mg/dL | RALB ([…], time 28 day): 4 g/dL | TBIL ([…], time 28 day): 0.3 mg/dL | TC ([…], time 28 day): 66.4 mg/dL | TG ([…], time 28 day): 128.2 mg/dL | TP ([…], time 28 day): 6.2 g/dL | gamma-GTP ([…], time 28 day): 1.4 IU/L
